{"source": "the NIST ThermoML archive (doi:10.1016/j.jct.2018.07.002)", "key": {"[1]": {"assay": "molar heat capacity at constant pressure", "conditions": "100 kPa, Liquid, isoperibol calorimetry"}, "[2]": {"assay": "excess molar enthalpy (molar enthalpy of mixing); xn = mol fraction of the nth substance listed", "conditions": "313.15 K, 100 kPa, Liquid, Power-compensation calorimetry"}}, "note": "± gives the expanded uncertainty stated by the source.", "data": [{"smiles": "CCOP(=O)([O-])OCC.CCn1cc[n+](C)c1", "note": "[1-ethyl-3-methylimidazolium diethyl phosphate]", "values": [{"measurement": "molar heat capacity at constant pressure", "setting": "[1]; 303.15 K", "value": "504.73 ± 32", "unit": "J/K/mol"}, {"measurement": "molar heat capacity at constant pressure", "setting": "[1]; 313.15 K", "value": "507.38 ± 32", "unit": "J/K/mol"}, {"measurement": "molar heat capacity at constant pressure", "setting": "[1]; 323.15 K", "value": "510.02 ± 32", "unit": "J/K/mol"}, {"measurement": "molar heat capacity at constant pressure", "setting": "[1]; 333.15 K", "value": "515.3 ± 32", "unit": "J/K/mol"}, {"measurement": "molar heat capacity at constant pressure", "setting": "[1]; 343.15 K", "value": "523.23 ± 32", "unit": "J/K/mol"}, {"measurement": "molar heat capacity at constant pressure", "setting": "[1]; 353.15 K", "value": "528.52 ± 32", "unit": "J/K/mol"}, {"measurement": "molar heat capacity at constant pressure", "setting": "[1]; 363.15 K", "value": "536.44 ± 32", "unit": "J/K/mol"}, {"measurement": "molar heat capacity at constant pressure", "setting": "[1]; 373.15 K", "value": "541.73 ± 32", "unit": "J/K/mol"}]}, {"smiles": "CCOP(=O)([O-])OCC.CCn1cc[n+](C)c1", "note": "[1-ethyl-3-methylimidazolium diethyl phosphate] + O", "values": [{"measurement": "excess molar enthalpy", "setting": "[2]; x1 = 0.017", "value": "-0.112 ± 0.00454", "unit": "kcal/mol"}, {"measurement": "excess molar enthalpy", "setting": "[2]; x1 = 0.019", "value": "-0.13 ± 0.00526", "unit": "kcal/mol"}, {"measurement": "excess molar enthalpy", "setting": "[2]; x1 = 0.023", "value": "-0.154 ± 0.00621", "unit": "kcal/mol"}, {"measurement": "excess molar enthalpy", "setting": "[2]; x1 = 0.027", "value": "-0.181 ± 0.00741", "unit": "kcal/mol"}, {"measurement": "excess molar enthalpy", "setting": "[2]; x1 = 0.25", "value": "-1.19 ± 0.0478", "unit": "kcal/mol"}, {"measurement": "excess molar enthalpy", "setting": "[2]; x1 = 0.5", "value": "-1.26 ± 0.0502", "unit": "kcal/mol"}]}]}
